# Like-named read-outs stand apart in the source and are kept apart here.
# Target: T1, HCV NS3 helicase (Hepatitis C virus genotype 1b, UniProt P26663)
# T1 construct: full-length NS3 (1-631), purified at Array BioPharma
# Experiment: HCV Helicase Prompt FRET Assay (Example A)
# Type: biochemical
# Outline: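 Initial unwinding rates, monitored as FAM fluorescence gain (ex 485, em 535) over ~30 min at room temperature, gave IC50 via 4- or 5-parameter logistic fits. Reactions: 50 nM quenched duplex, 250 nM capture strand, 300 μM ATP, 5–6 nM NS3 1-631 after 5 min compound preincubation, MOPS pH 7.0 buffer, 2% DMSO.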
# [1] = HCV NS3 helicase, tables do not say whether Example A or Example B assay, read-out: IC50 Activity
# [2] = Table 31, compounds made using Schemes 38-45, read-out: IC50 Activity
# [3] = Table 37, compounds made using Scheme 55, read-out: IC50 Activity
# [4] = Table 21, compounds made using Scheme 28, read-out: IC50 Activity
# [5] = Table 36, compounds made using Scheme 54, read-out: IC50 Activity
# [6] = Table 38, compounds made using Scheme 56, Scheme 57 and Scheme 61, read-out: IC50 Activity
# [7] = Table 23, compounds made using Scheme 30, read-out: IC50 Activity
# T1 sequence (P26663 1027-1657): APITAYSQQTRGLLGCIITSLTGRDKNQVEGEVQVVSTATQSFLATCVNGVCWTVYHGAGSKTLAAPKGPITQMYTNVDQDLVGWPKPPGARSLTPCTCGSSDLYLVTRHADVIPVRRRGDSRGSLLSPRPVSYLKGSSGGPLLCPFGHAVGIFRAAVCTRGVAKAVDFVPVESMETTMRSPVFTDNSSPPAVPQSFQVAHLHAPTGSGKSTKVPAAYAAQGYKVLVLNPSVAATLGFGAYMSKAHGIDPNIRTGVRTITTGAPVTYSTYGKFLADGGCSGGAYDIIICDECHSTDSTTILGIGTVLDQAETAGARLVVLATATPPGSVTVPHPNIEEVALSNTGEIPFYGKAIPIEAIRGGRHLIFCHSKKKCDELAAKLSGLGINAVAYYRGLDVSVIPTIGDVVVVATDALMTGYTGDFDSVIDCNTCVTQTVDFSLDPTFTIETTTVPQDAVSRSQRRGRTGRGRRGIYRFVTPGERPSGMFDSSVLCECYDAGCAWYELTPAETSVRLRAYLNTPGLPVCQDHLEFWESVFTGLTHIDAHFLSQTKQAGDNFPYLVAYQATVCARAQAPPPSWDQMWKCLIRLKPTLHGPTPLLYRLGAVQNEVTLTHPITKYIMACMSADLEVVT
smiles,measurement,setting,value
COc1cc2c(cc1OCc1ccccc1)c(CC(=O)O)cn2-c1ccc([N+](=O)[O-])cc1C [Example 342],IC50,[1],10 to 50 µM
O=C(O)Cc1cn(CCCc2ccccc2)c2ccc(Br)cc12 [Example 104],IC50,[1],10 to 50 µM
O=C(O)Cc1cn(Cc2ccc(-c3ccccc3)cc2)c2ccc(OCc3ccccc3)cc12 [Example 122],IC50,[1],< 10 µM
CCn1c(Cc2csc3ccc(Cl)cc23)c(CC(=O)O)c2ccc(OCc3ccccc3)cc21 [Example 370],IC50,[1],< 10 µM
CC(=O)Nc1cc(NC(C)=O)cc(-c2ccc3c(CC(=O)O)cn(Cc4csc5ccc(Cl)cc45)c3c2)c1 [Example 648],IC50,[2],< 10 µM
CN(Cc1cccc(F)c1)c1ccc(-n2cc(CC(=O)O)c3ccccc32)cc1 [Example 178],IC50,[1],< 10 µM
CC(C)c1ccc(Cn2c(C(=O)N3CCOCC3)c(CC(=O)O)c3cc(Br)ccc32)cc1 [Example 428],IC50,[1],> 50 µM
Nc1nc(Cl)c(C=O)c(-c2ccc3c(CC(=O)O)cn(Cc4csc5ccc(Cl)cc45)c3c2)n1 [Example 637],IC50,[2],< 10 µM
N#Cc1cccc(-c2ccc3c(CC(=O)O)cn(Cc4csc5ccc(Cl)cc45)c3c2)c1 [Example 756],IC50,[3],10 to 50 µM
CC(C)c1ccc(Cn2cc(C(N)C(=O)O)c3ccccc32)cc1 (stereo not drawn) [Example 418],IC50,[1],> 50 µM
Nc1ccc(CO)c(-c2ccc3c(CC(=O)O)cn(Cc4csc5ccc(Cl)cc45)c3c2)n1 [Example 615],IC50,"Table 26, compounds made using Scheme 33, read-out: IC50 Activity",10 to 50 µM
CC(C)c1ccc(Cn2c(C(=O)NCc3cccc(-c4ccccc4)c3)c(CC(=O)O)c3cc(Br)ccc32)cc1 [Example 445],IC50,[1],< 10 µM
CCOC(=O)Cc1cn(Cc2cccc3nc(C)ccc23)c2cc(-c3cc(N)cc(N)c3)ccc12 [Example 791],IC50,"Table 35, compounds made using Scheme 53, read-out: IC50 Activity",10 to 50 µM
CCOC(=O)Cc1cn(Cc2ccc(N(C)c3ccccc3F)cc2)c2ccccc12 [Example 583],IC50,[4],10 to 50 µM
O=C(O)Cc1cn(Cc2cccc(Oc3cccc(C(F)(F)F)c3)c2)c2ccccc12 [Example 482],IC50,[1],< 10 µM
NC(=O)Nc1cccc(-c2ccc3c(CC(=O)O)cn(Cc4csc5ccc(Cl)cc45)c3c2)c1 [Example 767],IC50,[3],10 to 50 µM
O=C(O)Cc1cn(Cc2csc3cccc(Cl)c23)c2cc(Br)ccc12 [Example 783],IC50,[5],10 to 50 µM
O=C(NS(=O)(=O)C1CC1)c1cn(Cc2csc3ccc(Cl)cc23)c2ccccc12 [Example 196],IC50,[1],10 to 50 µM
CC(C)c1cccc(-c2cccc(Cc3[nH]c4ccccc4c3CC(=O)O)c2)c1 [Example 302],IC50,[1],< 10 µM
O=C(O)Cc1cn(Cc2ccc(Oc3cc(F)ccc3F)cc2)c2ccccc12 [Example 586],IC50,[1],< 10 µM
O=C(O)Cc1cn(Cc2csc3ccc(Cl)cc23)c2cc(-c3ccc4nc[nH]c4c3)ccc12 [Example 668],IC50,"Table 33, compounds made using Scheme 50, read-out: IC50 Activity",10 to 50 µM
O=C(O)Cc1cn(Cc2ccc(Oc3cccc(F)c3)cc2)c2ccccc12 [Example 518],IC50,[1],< 10 µM
COC(=O)C(Cc1ccc(C(C)C)cc1)c1cn(-c2ccc([N+](=O)[O-])cc2C)c2ccc(Br)cc12 (stereo not drawn) [Example 407],IC50,[1],> 50 µM
Cc1cc([N+](=O)[O-])ccc1-n1cc(C(C)C(=O)O)c2cc(Br)ccc21 (stereo not drawn) [Example 391],IC50,[1],10 to 50 µM
O=C(O)Cc1c(C(=O)c2ccc(-c3ccncc3)cc2)[nH]c2ccccc12 [Example 247],IC50,[1],10 to 50 µM
CC(C)Oc1ccc2scc(Cn3cc(CC(=O)O)c4cc(Br)ccc43)c2c1 [Example 141],IC50,[1],10 to 50 µM
CN(c1cc(Cl)cc2c(Cn3cc(CC(=O)O)c4ccc(-c5cc(N)cc(N)c5)cc43)csc12)S(C)(=O)=O [Example 730],IC50,[6],10 to 50 µM
O=C(O)Cc1cn(-c2ccc3sccc3c2)c2ccccc12 [Example 147],IC50,[1],10 to 50 µM
CCNc1cc(Cl)cc2c(Cn3cc(CC(=O)O)c4ccc(Br)cc43)csc12 [Example 772],IC50,[6],> 50 µM
CN(c1cccc(Cn2cc(CC(=O)O)c3ccccc32)c1)c1ccccc1Cl [Example 523],IC50,[1],< 10 µM
CCOC(=O)Cc1cn(Cc2ccc(Oc3cccc(Cl)c3)cc2)c2cc(-c3cc(N)cc(N)c3)ccc12 [Example 612],IC50,"Table 25, compounds made using Scheme 32, read-out: IC50 Activity",< 10 µM
O=C(O)Cc1cn(Cc2cccc(Oc3ccc(C(F)(F)F)cc3C(F)(F)F)c2)c2ccccc12 [Example 597],IC50,[7],< 10 µM
O=C(O)Cc1c(C(=O)Cc2ccc(F)cc2)n(Cc2ccccc2)c2ccccc12 [Example 259],IC50,[1],10 to 50 µM
O=C(O)Cc1c[nH]c2ncccc12 [Example 318],IC50,[1],> 50 µM
O=C(O)Cc1cn(Cc2cccc(Oc3c(F)cccc3F)c2)c2ccccc12 [Example 594],IC50,[7],< 10 µM
Nc1nc(-c2ccc3c(CC(=O)O)cn(Cc4csc5ccc(Cl)cc45)c3c2)c2nc[nH]c2n1 [Example 639],IC50,[2],10 to 50 µM
COc1cc2c(cc1OCc1ccccc1)c(CC(=O)O)cn2Cc1csc2ccc(Cl)cc12 [Example 346],IC50,[1],10 to 50 µM
N#CCc1cn(Cc2csc3ccc(Cl)cc23)c2ccc(CNC(=O)c3ccccc3)cc12 [Example 211],IC50,[1],10 to 50 µM
Cc1cc([N+](=O)[O-])ccc1-n1c(Cc2csc3ccc(Cl)cc23)c(CC(=O)O)c2ccc(OCc3ccccc3)cc21 [Example 371],IC50,[1],< 10 µM
Nc1cc(-c2ccc3c(CC(=O)NS(=O)(=O)C4CC4)cn(Cc4csc5ccc(Cl)cc45)c3c2)cc([N+](=O)[O-])c1 [Example 687],IC50,"Table 34, compounds made using Schemes 51-52, read-out: IC50 Activity",< 10 µM
CC(C)c1ccc(Cn2cc(C(Cc3ccccc3)C(=O)O)c3ccccc32)cc1 (stereo not drawn) [Example 410],IC50,[1],< 10 µM
O=C(O)Cc1c(C(=O)c2cccc(Oc3ccccc3)c2)n(Cc2ccccc2)c2ccccc12 [Example 222],IC50,[1],< 10 µM
O=C(O)Cc1c(C(=O)c2ccc(-c3ccccc3)cc2)sc2ccccc12 [Example 224],IC50,[1],< 10 µM
CCS(=O)(=O)NC(=O)Cc1cn(Cc2cccc(OCc3ccccc3)c2)c2ccc(OCc3ccccc3)cc12 [Example 193],IC50,[1],< 10 µM
O=C(O)Cc1c(C(=O)c2ccc(-c3ccccc3)cc2)n(Cc2csc3ccc(Cl)cc23)c2ccccc12 [Example 220],IC50,[1],< 10 µM
O=C(O)Cc1cn(Cc2csc3cc(Cl)cc(Cl)c23)c2cc(Br)ccc12 [Example 786],IC50,[5],> 50 µM
O=C(O)Cc1cn(Cc2csc3ccc(Cl)cc23)c2cc(-c3ccnc(NCCO)c3)ccc12 [Example 741],IC50,[1],< 10 µM
O=C(O)Cc1cn(Cc2csc3ccc(Cl)cc23)c2cc(OCc3ccccc3)c(OCc3ccccc3)cc12 [Example 358],IC50,[1],< 10 µM
CCOC(=O)C(O)(c1cn(-c2ccc([N+](=O)[O-])cc2C)c2ccc(Br)cc12)C(F)(F)F (stereo not drawn) [Example 389],IC50,"IC50 Activity, HCV NS3 helicase, tables do not say whether Example A or Example B assay",> 50 µM
CN(C)C(=O)c1cccc(-c2ccc3c(CC(=O)O)cn(Cc4csc5ccc(Cl)cc45)c3c2)c1 [Example 761],IC50,[3],10 to 50 µM
CN(c1ccc(Cn2cc(CC(=O)O)c3ccccc32)cc1)c1cc(F)ccc1F [Example 570],IC50,[4],< 10 µM
O=C(O)Cc1c(C(=O)c2ccc(-c3ccc(Cl)cc3Cl)cc2)[nH]c2ccccc12 [Example 272],IC50,[1],< 10 µM
CN(c1ccc(C(F)(F)F)cc1)c1cccc(Cn2cc(CC(=O)O)c3ccccc32)c1 [Example 531],IC50,[1],< 10 µM
CN(c1ccc(Cn2cc(CC(=O)O)c3ccccc32)cc1)c1ccc(F)cc1F [Example 569],IC50,[4],< 10 µM
O=C(NCc1ccc2c(c1)c(Cc1nn[nH]n1)cn2Cc1csc2ccc(Cl)cc12)OCc1ccccc1 [Example 207],IC50,[1],< 10 µM
Nc1cc(N)cc(-c2ccc3c(CC(=O)O)cn(Cc4c(-c5cccc(Cl)c5)sc5ccccc45)c3c2)c1 [Example 715],IC50,[5],< 10 µM
Cc1cc([N+](=O)[O-])ccc1-n1cc(/C=C/C(=O)O)c2cc(Br)cnc21 [Example 330],IC50,[1],> 50 µM
Nc1cc(N)cc(-c2ccc3c(CC(=O)O)cn(Cc4c(-c5ccccc5)sc5ccccc45)c3c2)c1 [Example 713],IC50,[5],< 10 µM
O=C(O)Cc1cn(-c2ccc(-c3ccccc3Cl)cc2)c2ccccc12 [Example 153],IC50,[1],< 10 µM
O=C(O)Cc1c(Cc2cccc(-c3cccc(CO)c3)c2)[nH]c2ccccc12 [Example 300],IC50,[1],< 10 µM
CCN(CC)C(=O)C(=O)c1cn(-c2ccc([N+](=O)[O-])cc2C)c2ccc(Br)cc12 [Example 385],IC50,[1],> 50 µM
CN(c1ccc(Cn2cc(CC(=O)O)c3ccccc32)cc1)c1ccccc1Cl [Example 559],IC50,[4],< 10 µM
O=C(O)Cc1cn(Cc2cccc(Oc3cccc(Cl)c3Cl)c2)c2ccccc12 [Example 595],IC50,[7],< 10 µM
Cc1cc([N+](=O)[O-])ccc1-n1cc(I)c2cc(Br)cnc21 [Example 320],IC50,[1],> 50 µM
O=C(O)Cc1c(C(=O)c2cccc(-c3ccc(CO)cc3)c2)[nH]c2ccccc12 [Example 235],IC50,[1],10 to 50 µM
O=C(O)Cc1cn(Cc2ccc(Oc3ccc(F)cc3F)cc2)c2ccccc12 [Example 585],IC50,[1],< 10 µM
Nc1cc(-c2ccc3c(CC(=O)O)cn(Cc4csc5ccc(Cl)cc45)c3c2)cc([N+](=O)[O-])c1 [Example 365],IC50,[1],< 10 µM
O=C(O)Cc1c(Cc2ccc(-c3ccccc3)cc2)sc2ccccc12 [Example 306],IC50,[1],< 10 µM
Cc1ccccc1-c1ccc2c(CC(=O)O)cn(Cc3csc4ccc(Cl)cc34)c2c1 [Example 626],IC50,[2],< 10 µM
O=C(O)Cc1cn(Cc2cccc(Oc3ccc(F)cc3F)c2)c2ccccc12 [Example 593],IC50,[7],< 10 µM
O=C(O)Cc1cn(Cc2csc3c(Cl)c(Cl)ccc23)c2cc(Br)ccc12 [Example 780],IC50,[5],> 50 µM
CC(C)c1ccc(Cn2c(C(N)=O)c(CC(=O)O)c3ccccc32)cc1 [Example 665],IC50,"Table 32, compounds made using Schemes 46-49, read-out: IC50 Activity",10 to 50 µM

# Reference: patent publication US20090047246A1, “NOVEL INHIBITORS OF HEPATITIS C VIRUS REPLICATION” (InterMune, Inc., priority 2007, published 2009)
